According to patent US8372865B2, “Dihydropyridone amides as P2X7 modulators” (Roche Palo Alto LLC, priority 2008, dated 2013):

Molecular target: T1, P2X7 receptor (UniProt Q99572)
T1 sequence (Q99572 1-595): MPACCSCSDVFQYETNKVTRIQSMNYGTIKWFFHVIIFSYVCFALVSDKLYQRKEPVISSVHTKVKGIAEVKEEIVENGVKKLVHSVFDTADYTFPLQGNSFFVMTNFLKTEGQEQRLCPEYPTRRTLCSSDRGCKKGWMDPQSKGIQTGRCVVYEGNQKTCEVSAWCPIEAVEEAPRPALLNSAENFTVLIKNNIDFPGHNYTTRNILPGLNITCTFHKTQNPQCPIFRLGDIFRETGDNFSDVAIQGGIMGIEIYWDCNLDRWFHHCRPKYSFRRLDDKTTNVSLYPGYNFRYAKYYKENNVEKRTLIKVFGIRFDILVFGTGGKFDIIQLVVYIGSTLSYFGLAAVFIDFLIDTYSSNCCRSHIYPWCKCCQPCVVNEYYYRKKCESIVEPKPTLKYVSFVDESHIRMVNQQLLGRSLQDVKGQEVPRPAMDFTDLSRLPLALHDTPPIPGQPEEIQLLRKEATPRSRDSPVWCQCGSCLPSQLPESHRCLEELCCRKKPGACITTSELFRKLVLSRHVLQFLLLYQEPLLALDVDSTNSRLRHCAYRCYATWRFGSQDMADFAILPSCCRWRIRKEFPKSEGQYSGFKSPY
Test: pKi of Table 1 (assay not stated)
Format: cell-based
Description: Intracellular Calcium Flux (FLIPR) Assay
Stock solutions of compounds were prepared from powders as a 10 mM DMSO stock solution. These solutions were stored at RT during the two week period of these experiments to prevent freeze-thaw of the DMSO stocks. The DMSO stocks were added to the appropriate assay buffer at a concentration of 10 μM, and then diluted serially to the final concentrations that were tested. […] The aqueous solutions of compounds as well as ATP (Sigma A7699) and BzATP (Sigma B6396) were prepared fresh for each day of experiment.
1321N1 cells stably expressing the full length human P2X7 gene (1321N1-hP2X7) and HEK293 cells stably expressing the full length rat P2X7 gene (HEK293-rP2X7) were obtained from the Roche Cell Culture Facility. 1321N1-hP2X7 cells were grown in Dulbecco's Modified Eagle's Medium (DMEM) high glucose supplemented with 10% FBS and 250 μg/mL G418. HEK293-rP2X7 cells were grown in DMEM/F-12 supplemented with 10% FBS, 1 mM CaCl2, 2 mM MgCl2, 2 mM L-Glutamine and 500 μg/ml G418. Cells were split such that they never became>70% confluent.
On the day prior to the experiment, 1321N1-hP2X7 or HEK293-rP2X7 cells were released into suspension with calcium-free PBS+Versene and washed by centrifugation with calcium-free PBS to remove the Versene. Cells were resuspended in growth medium at a density of 2.5×10^5 cells/mL and seeded into black walled, clear bottom 96 well plates (50,000 cells/well) approximately 18 hr prior to intracellular calcium flux experiments.
On the day of the experiment, plates were washed with FLIPR buffer (calcium- and magnesium-free Hank's Balanced Salt Solution (HBSS) supplemented with 10 mM Hepes, 2.5 mM probenecid and 2 mM calcium chloride) using a BIO-TEK 96 channel plate washer and incubated with […] fluo-3 dye at 37° C. for one hr. The dye was then removed by plate washing and the cells were allowed to equilibrate for 20 min at room temperature with antagonist or vehicle (FLIPR buffer). Agonist (100 μM BzATP final concentration for hP2X7; 5 μM BzATP final concentration or rP2X7) was added online with the FLIPR and fluorescence measurements made at 1 sec intervals for 60 sec followed by 3 sec intervals for a further 4 min (5 min total). A final addition of 5 μM ionomycin was made and the maximal BzATP-evoked fluorescence normalized to the maximal ionomycin-evoked fluorescence.

pKi | Structure (SMILES)
7.4375 | Cc1ccc2c(=O)n(C)ccc2c1NC(=O)C1=CNC(=O)C[C@H]1c1ccc(F)cc1 [Compound 51, (S)-4-(4-Fluoro-phenyl)-6-oxo-1,4,5,6-tetrahydro-pyridine-3-carboxylic acid (2,6-dimethyl-1-oxo-1,2-dihydro-isoquinolin-5-yl)-amide]
7.45 | Cc1ccc2c(=O)n(C)ccc2c1NC(=O)C1=CN(C)C(=O)C[C@H]1c1ccc(F)cc1 [Compound 52, (S)-4-(4-Fluoro-phenyl)-1-methyl-6-oxo-1,4,5,6-tetrahydro-pyridine-3-carboxylic acid (2,6-dimethyl-1-oxo-1,2-dihydro-isoquinolin-5-yl)-amide]
6.045 | Cc1ccc2c(C)nccc2c1NC(=O)C1=CN(C)C(=O)C[C@H]1c1ccc(F)cc1 [Compound 53, (S)-4-(4-Fluoro-phenyl)-1-methyl-6-oxo-1,4,5,6-tetrahydro-pyridine-3-carboxylic acid (1,6-dimethyl-isoquinolin-5-yl)-amide]
7.56 | Cn1ccc2c(NC(=O)C3=CNC(=O)C[C@H]3c3ccc(F)cc3)cccc2c1=O [Compound 58, (S)-4-(4-Fluoro-phenyl)-6-oxo-1,4,5,6-tetrahydro-pyridine-3-carboxylic acid (2-methyl-1-oxo-1,2-dihydro-isoquinolin-5-yl)-amide]
